A short description of the data set: Thermo Scientific Acclaim RSLC 120 C18, 100 × 2.1 mm, 2.2 µm, 30 °C; A: 90% water + 10% methanol + 0.01% formic acid + 5 mM ammonium formate; B: methanol + 0.01% formic acid + 5 mM ammonium formate; gradient (min/%B) 0.1/1 3/39 14/99.9 16/99.9. The conditions noted are these: stereoisomer not certain.
Regarding `CCOC(=O)Nc1cccc(OC(=O)Nc2ccccc2)c1`, the LC retention time worked out at 8.57 min.
In the case of `CN1CCN2c3ncccc3Cc3ccccc3C2C1` (stereo not drawn) it was 5.29 min; in that of `NC(=O)N1c2ccccc2C2OC2c2ccccc21` (stereo not drawn), 6.04 min; in that of `Cc1cnc(NC(=O)C2=C(O)c3ccccc3S(=O)(=O)N2C)s1`, 7.09 min.
In the case of `CCOP(=S)(Oc1ccc(C#N)cc1)c1ccccc1` (stereo not drawn) it was 10.9 min.
Take `CC(=O)CC(c1ccccc1)c1c(O)c2ccccc2oc1=O` (stereo not drawn): the LC retention time came out at 9.08 min.
With `COCC(=O)N(c1c(C)cccc1C)C(C)C(=O)OC` (stereo not drawn), the LC retention time was found to be 8.22 min.
Take `CCCc1nn(C)c2c(=O)[nH]c(-c3cc(C(=O)CN4CCN(C)CC4)ccc3OCC)nc12`: the LC retention time is 6.99 min.
As to `Nc1ccc(S(=O)(=O)Nc2ncccn2)cc1`, the LC retention time turned out to be 3.48 min.
In the case of `CCOC(=O)C(SP(=S)(OC)OC)c1ccccc1` (stereo not drawn) it was 10.7 min; in that of `CCN(CC)CCCN(c1ccccc1)C1Cc2ccccc2C1`, 8.85 min.
In the case of `CCC(=O)OC(Cc1ccccc1)(c1ccccc1)C(C)CN(C)C` (stereo not drawn) it was 7.73 min; in that of `Cc1ccccc1N1CCN(CCc2nnc3n2CCCC3)CC1`, 5.66 min.
In the case of `CSC(=O)c1cccc2nnsc12` it was 9.65 min; in that of `OCCN1CCN(CCCN2c3ccccc3C=Cc3ccccc32)CC1`, 7.83 min; in that of `CC1(C)C(C(=O)c2cn(CC3CCOCC3)c3ccccc23)C1(C)C`, 11.4 min.
For `CCCC(=O)Nc1ccc(OCC(O)CNC(C)C)c(C(C)=O)c1` (stereo not drawn), the LC retention time was 4.78 min.
In the case of `CCc1cccc2c3c([nH]c12)C(CC)(CC(=O)O)OCC3` (stereo not drawn) it was 10.6 min; in that of `CC(CS)C(=O)N1CCCC1C(=O)O` (stereo not drawn), 4.59 min.
In the case of `CN(C)CCC=C1c2ccccc2CCc2ccccc21` it was 8.23 min; in that of `CCC1(c2ccccc2)C(=O)NCNC1=O`, 5.29 min; in that of `COC(C)(C)CCCC(C)CC=CC(C)=CC(=O)OC(C)C` (stereo not drawn), 13.6 min.
In the case of `COP(=O)(OC)Oc1ccc([N+](=O)[O-])cc1` it was 6.36 min; in that of `CCC(=O)C(CCN(C)C)(c1ccccc1)c1ccccc1`, 7.68 min; in that of `CCCCn1cc(C(=O)c2cccc3ccccc23)c2cccc(O)c21`, 11.2 min.
Regarding `Cc1ncc([N+](=O)[O-])n1CCO`, the LC retention time is 3.58 min.
`CN1C(C(=O)Nc2ccccn2)=C(O)c2ccccc2S1(=O)=O`: the LC retention time was 6.84 min.
In the case of `N=C1NC(=O)C(c2ccccc2)O1` (stereo not drawn), the LC retention time came out at 4.34 min.
For `CC(=O)Oc1cc(C(C)C)c(OCCN(C)C)cc1C`, the LC retention time came out at 6.21 min.
In the case of `CC(C)(C(=O)O)c1ccc(C(O)CCCN2CCC(C(O)(c3ccccc3)c3ccccc3)CC2)cc1` (stereo not drawn) it was 7.68 min; in that of `CC(COc1ccccc1)NC(C)C(O)c1ccc(O)cc1` (stereo not drawn), 5.28 min; in that of `CCCCCCCCCc1ccc(OCCOCCO)cc1`, 13.8 min.
In the case of `CCC(C(=O)c1ccc2c(c1)OCO2)N(C)C` (stereo not drawn) it was 4.38 min; in that of `CN(C)S(=O)(=O)c1ccc2c(c1)N(CCCN1CCC(CCO)CC1)c1ccccc1S2`, 7.39 min; in that of `CC12CCC3c4ccc(O)c(O)c4CCC3C1CCC2=O` (stereo not drawn), 8.69 min.
For `CCNC1CC(C)S(=O)(=O)c2sc(S(N)(=O)=O)cc21` (stereo not drawn), the LC retention time is 3.19 min.
With `Cc1cc(O)ccc1CC(C)N` (stereo not drawn), the LC retention time was determined as 2.98 min.
In the case of `CCN(CCO)CCn1c(Cc2ccccc2)nc2c1c(=O)n(C)c(=O)n2C` it was 5.24 min.
In the case of `CC12CCC3C4CCC(=O)C=C4CCC3C1CCC2OC(=O)CCc1ccccc1` (stereo not drawn) it was 13.6 min.
As to `CCCc1nn(C)c2c(=O)[nH]c(-c3cc(S(=O)(=O)N4CCNCC4)ccc3OCC)nc12`, the LC retention time worked out at 7.35 min.
With `c1ccc2c(c1)CCCC2C1=NCCN1` (stereo not drawn), the LC retention time amounted to 4.47 min.
In the case of `CN(C)CCN(Cc1cccs1)c1ccccc1` it was 6.32 min; in that of `Cc1cccc(N(C)C(=S)Oc2ccc3ccccc3c2)c1`, 12.2 min.
With `COc1ccc2cccc(CCNC(C)=O)c2c1`, the LC retention time amounted to 8.68 min.
In the case of `NC12CC3CC(CC(C3)C1)C2` it was 4.86 min; in that of `CN(CCO)CC(O)Cn1cnc2c1c(=O)n(C)c(=O)n2C` (stereo not drawn), 2.99 min; in that of `CCN(CC)C(=O)C(C)Oc1cccc2ccccc12` (stereo not drawn), 10.2 min.
In the case of `CCCSP(=S)(OCC)Oc1ccc(SC)cc1` (stereo not drawn) it was 12.8 min; in that of `CCOc1cc(OP(=S)(OC)OC)nc(CC)n1`, 11 min.
For the molecule `CC=CC(=O)N(CC)C(CC)C(=O)N(C)C` (stereo not drawn), the LC retention time came to 6.13 min.
In the case of `CN1CCCN=C1COC(=O)C(O)(c1ccccc1)C1CCCCC1` (stereo not drawn) it was 7.98 min.
In the case of `CNC(=C[N+](=O)[O-])NCCSCc1ccc(CN(C)C)o1` it was 3.14 min; in that of `COc1cnc(NS(=O)(=O)c2ccc(N)cc2)nc1`, 4.18 min.
In the case of `CCCCCn1cc(C(=O)Cc2ccccc2C)c2ccccc21` it was 12.2 min; in that of `CCCCC1C(=O)N(c2ccccc2)N(c2ccccc2)C1=O`, 8.98 min.
As to `CCCCCc1cc(O)c2c(c1)OC(C)(C)C1CCC(CO)=CC21` (stereo not drawn), the LC retention time is 12.5 min.
In the case of `COP(=S)(OC)Oc1ccc(S(=O)(=O)N(C)C)cc1` it was 7.99 min.
In the case of `NC(=O)N=C(N)N` it was 1.31 min.
Consider `CCCN(CCC)CCc1cccc2c1CC(=O)N2`, for which the LC retention time stood at 3.98 min.
In the case of `Cc1cc(C)cc(C(=O)N(NC(=O)c2ccc3c(c2C)CCCO3)C(C)(C)C)c1` it was 9.93 min; in that of `CC[N+]([O-])(CC)CC(=O)Nc1c(C)cccc1C`, 5.34 min; in that of `O=C1CC2OCC=C3CN4CCC56c7ccccc7N1C5C2C3CC46` (stereo not drawn), 4.16 min.
In the case of `CC(=O)Nc1nnc(S(N)(=O)=O)s1` it was 3.43 min.
For the molecule `CC(N)Cc1c[nH]c2ccccc12` (stereo not drawn), the LC retention time stood at 4.44 min.
With `CCCCn1cc(C(=O)c2cccc3ccccc23)c2cc(O)ccc21`, the LC retention time stood at 11.3 min.
Turning to `CCCCCn1c(O)c(C(=O)c2cccc3ccccc23)c2ccccc21`, the LC retention time came to 14 min.
In the case of `CN(C)CCc1c[nH]c2ccc(CC3COC(=O)N3)cc12` (stereo not drawn) it was 3.61 min.
For `Cc1cc(C)nc(NC(=O)NS(=O)(=O)c2ccccc2C(=O)OC2COC2)n1`, the LC retention time worked out at 6.52 min.
For the molecule `CCC(=O)OC(OP(=O)(CCCCc1ccccc1)CC(=O)N1CC(C2CCCCC2)CC1C(=O)O)C(C)C` (stereo not drawn), the LC retention time was found to be 12.4 min.
On to `CN1CCC(=C2c3ccccc3CC(=O)c3sccc32)CC1`, for which the LC retention time was 5.54 min.
In the case of `CNC(=O)Oc1cc(C)c(C)c(C)c1` it was 8.1 min; in that of `CCCN1CCCCC1C(=O)Nc1c(C)cccc1C` (stereo not drawn), 5.39 min.
On to `CCCCCc1cc(O)c2c(c1)OC(C)(C)C1CCC(C(=O)O)=CC21` (stereo not drawn), for which the LC retention time came to 12.5 min.
In the case of `CCc1cccc(CC)c1N(COC)C(=O)CS(=O)(=O)O` it was 7.19 min; in that of `CN1C2CCCC1CC(NC(=O)c1nn(C)c3ccccc13)C2` (stereo not drawn), 4.99 min.
Regarding `COP(=S)(OC)SCn1nnc2ccccc2c1=O`, the LC retention time came to 8.89 min.
`CCCCc1ncc(C=C(Cc2cccs2)C(=O)O)n1Cc1ccc(C(=O)O)cc1`: the LC retention time was 7.49 min.
`CCOc1cc(CC(=O)NC(CC(C)C)c2ccccc2N2CCCCC2)ccc1C(=O)O` (stereo not drawn): the LC retention time was 11.9 min.
In the case of `CCCCCCCC(C)(C)c1ccc(C2CCCC(O)C2)c(O)c1` (stereo not drawn) it was 13.5 min; in that of `O=C(O)c1ccccc1C(=O)Nc1ccc(S(=O)(=O)Nc2nccs2)cc1`, 4.66 min.
Regarding `c1ccc(C2(N3CCCCC3)CCCCC2)cc1`, the LC retention time worked out at 5.74 min.
In the case of `c1ccc2scnc2c1` it was 6.88 min; in that of `CCOP(=S)(OCC)SC1OCCOC1SP(=S)(OCC)OCC` (stereo not drawn), 12.1 min.
Regarding `CC(NCCC(c1ccccc1)c1ccccc1)c1ccccc1` (stereo not drawn), the LC retention time turned out to be 8.54 min.
As for `CCC(CC)COC(C(=O)OCCN(C)C)(c1ccccc1)c1ccccc1`, the LC retention time worked out at 11.6 min.
For `CCOC1OC(C(=O)O)C(O)C(O)C1O` (stereo not drawn), the LC retention time amounted to 1.52 min.
In the case of `CNCC12CCC(c3ccccc31)c1ccccc12` it was 6.52 min.
In the case of `CCC(CC)Nc1c([N+](=O)[O-])cc(C)c(C)c1[N+](=O)[O-]` it was 12.8 min; in that of `NNCCc1ccccc1`, 3.71 min.
Turning to `CNC(=O)Oc1cc(C)cc(C)c1C`, the LC retention time worked out at 8.4 min.
With `CC(=O)OCC(=O)C12N=C(C)OC1CC1C3CCC4=CC(=O)C=CC4(C)C3C(O)CC12C` (stereo not drawn), the LC retention time amounted to 9.35 min.
As for `Cc1onc(-c2ccccc2)c1-c1ccc(S(N)(=O)=O)cc1`, the LC retention time was 7.37 min.
In the case of `CC(=O)Nc1ccc(S(=O)(=O)Nc2cc(C)on2)cc1` it was 5.28 min.
In the case of `CCCCOCCOCCSC#N` it was 8.12 min.
Take `COc1ccc2c(c1OC)C(=O)OC2C1c2c(cc3c(c2OC)OCO3)CCN1C` (stereo not drawn): the LC retention time was 6.96 min.
In the case of `CCCCNC(=O)NS(=O)(=O)c1ccc(C)cc1` it was 7.68 min; in that of `CN1Cc2c(N)cccc2C(c2ccccc2)C1` (stereo not drawn), 5.42 min; in that of `CNCCCN1c2ccccc2CCc2ccccc21`, 8.08 min.

The record behind these values is the RepoRT retention time repository (doi:10.1016/j.jhazmat.2019.121712).
